# Measured values: ChEMBL document CHEMBL6109094, “Anti-inflammatory agents design via the fragment hybrid strategy in the discovery of compound c1 for treating ALI and UC” (Eur J Med Chem, 2025)
# Active and inactive are the calls of the source. The rule behind the calls is not given here.
# Columns and labels:
# Mus musculus [1] = experiment: Anti-inflammatory activity in C57BL/6 mouse model of LPS-induced ALI assessed as decrease in total cell count in BALF at 20 mg/kg, po measured after 6 hrs with administered on every 12 hrs followed by LPS treatment after 30 mins post-compound treatment; type: functional, organism-based; settings: time 6.5 hrs
# Mus musculus [2] = experiment: Anti-inflammatory activity in C57BL/6 mouse model of DSS-induced ulcerative colitis assessed as colon length at 40 mg/kg, po administered for 8 days (reference value: 5.1 cm); type: functional, organism-based; settings: time 8.0 day
# Mus musculus [3] = experiment: Anti-inflammatory activity in C57BL/6 mouse model of LPS-induced ALI assessed as decrease in spleen weight at 20 mg/kg, po measured after 6 hrs with administered on every 12 hrs followed by LPS treatment after 30 mins post-compound treatment; type: functional, organism-based; settings: time 6.5 hrs
# RAW264.7 [4] = experiment: Inhibition of MAPK signalling pathway in mouse RAW264.7 cells assessed as reduction in p38 phosphorylation at 2.5 uM preincubated for 2 hrs followed by LPS addition measured after 30 mins by Western blot analysis; type: cell-based; settings: time 2.5 hrs
# Mus musculus [5] = experiment: Anti-inflammatory activity in C57BL/6 mouse model of DSS-induced ulcerative colitis assessed as decrease in spleen weight at 20 to 40 mg/kg, po administered for 8 days; type: functional, organism-based; settings: dose 20-40 mg/kg, time 8.0 day
# [6] = target: Interleukin-1 receptor-associated kinase 1 (Homo sapiens) (UniProt P51617); experiment: Inhibition of IRAK1 (unknown origin) at 10 uM relative to control
# Interleukin-1 receptor-associated kinase 1 (Homo sapiens), sequence (P51617 whole entry, looked up): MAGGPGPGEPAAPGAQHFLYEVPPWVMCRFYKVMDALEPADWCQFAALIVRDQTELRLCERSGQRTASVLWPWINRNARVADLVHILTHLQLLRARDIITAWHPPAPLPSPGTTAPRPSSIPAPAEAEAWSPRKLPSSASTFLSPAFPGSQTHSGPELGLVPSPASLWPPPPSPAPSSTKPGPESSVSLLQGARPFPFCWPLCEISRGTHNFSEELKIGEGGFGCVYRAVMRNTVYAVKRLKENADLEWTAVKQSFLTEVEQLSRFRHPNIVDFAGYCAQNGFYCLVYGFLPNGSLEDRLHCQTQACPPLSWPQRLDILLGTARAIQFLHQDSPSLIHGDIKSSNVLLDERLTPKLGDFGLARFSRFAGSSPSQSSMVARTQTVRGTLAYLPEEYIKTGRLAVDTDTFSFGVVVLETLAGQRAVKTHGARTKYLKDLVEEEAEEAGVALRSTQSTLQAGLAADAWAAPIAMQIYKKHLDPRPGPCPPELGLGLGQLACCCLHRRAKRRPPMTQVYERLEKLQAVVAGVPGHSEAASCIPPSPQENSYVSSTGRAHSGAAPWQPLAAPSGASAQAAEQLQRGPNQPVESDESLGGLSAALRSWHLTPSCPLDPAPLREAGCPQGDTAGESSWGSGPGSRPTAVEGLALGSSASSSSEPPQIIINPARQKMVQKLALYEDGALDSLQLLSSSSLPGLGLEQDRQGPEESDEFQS
# RAW264.7 [7] = experiment: Anti-inflammatory activity in mouse RAW264.7 cells assessed as inhibition of LPS-induced TNF-alpha mRNA level preincubated for 2 hrs followed by LPS addition measured after 6 hrs by RT-qPCR analysis; type: functional, cell-based; settings: dose 1-4 µM, time 8.0 hrs
# RAW264.7 [8] = experiment: Anti-inflammatory activity in mouse RAW264.7 cells assessed as inhibition of LPS-induced IL-6 mRNA level preincubated for 2 hrs followed by LPS addition measured after 6 hrs by RT-qPCR analysis; type: functional, cell-based; settings: dose 1-4 µM, time 8.0 hrs
# THP-1 = experiment: cells; settings: Homo sapiens
# Description: Anti-inflammatory activity in human THP-1 cells assessed as inhibition of LPS-induced TNF-alpha level preincubated for 30 mins followed by LPS addition measured after 24 hrs by ELISA
# Mus musculus [9] = experiment: Anti-inflammatory activity in C57BL/6 mouse model of DSS-induced ulcerative colitis assessed as decrease in fusion of white pulp of spleen administered orally for 8 days; type: functional, organism-based; settings: dose 20-40 mg/kg, route po, time 8.0 day
# Mus musculus [10] = experiment: Anti-inflammatory activity in C57BL/6 mouse model of LPS-induced ALI assessed as inhibition of TNF-alpha level in BALF at 20 mg/kg, po measured after 6 hrs with administered on every 12 hrs followed by LPS treatment after 30 mins post-compound treatment by ELISA; type: functional, organism-based; settings: time 6.5 hrs
# RAW264.7 [11] = experiment: Anti-inflammatory activity in mouse RAW264.7 cells assessed as inhibition of LPS-induced IL-6 level at 10 uM preincubated for 30 mins followed by LPS addition measured after 24 hrs by ELISA relative to control; type: functional; settings: time 24.5 hrs
# Mus musculus [12] = experiment: Anti-inflammatory activity in C57BL/6 mouse model of DSS-induced ulcerative colitis assessed as colon length at 100 mg/kg, po administered for 8 days (reference value: 5.1 cm); type: functional, organism-based; settings: time 8.0 day
# [13] = AUC (0 to t) in Sprague-Dawley rat at 10 mg/kg, po measured for 24 hrs; type: ADME, organism-based; settings: in vivo
# [14] = target: Mitogen-activated protein kinase 14 (Homo sapiens) (UniProt Q16539); experiment: Inhibition of p38-alpha (unknown origin) at 10 uM relative to control
# Mitogen-activated protein kinase 14 (Homo sapiens), sequence (Q16539 whole entry): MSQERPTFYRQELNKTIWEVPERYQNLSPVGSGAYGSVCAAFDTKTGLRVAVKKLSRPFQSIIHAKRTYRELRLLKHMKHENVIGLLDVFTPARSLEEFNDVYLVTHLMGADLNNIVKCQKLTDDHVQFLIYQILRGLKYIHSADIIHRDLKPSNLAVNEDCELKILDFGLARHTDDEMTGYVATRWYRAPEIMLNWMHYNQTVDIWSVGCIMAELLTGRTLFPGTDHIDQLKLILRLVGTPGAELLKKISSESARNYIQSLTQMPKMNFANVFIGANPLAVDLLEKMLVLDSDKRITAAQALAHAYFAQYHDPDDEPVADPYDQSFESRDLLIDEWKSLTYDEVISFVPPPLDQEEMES
# Mus musculus [15] = experiment: Anti-inflammatory activity in C57BL/6 mouse model of DSS-induced ulcerative colitis assessed as decrease in inflammatory cell infiltration in colonic tissue at 20 to 40 mg/kg, po administered for 8 days […]; type: functional, organism-based; settings: dose 20-40 mg/kg, time 8.0 day
# RAW264.7 [16] = experiment: Inhibition of MAPK signalling pathway in mouse RAW264.7 cells assessed as reduction in JNK phosphorylation at 2.5 uM preincubated for 2 hrs followed by LPS addition measured after 30 mins by Western blot analysis; type: cell-based; settings: time 2.5 hrs
# Mus musculus [17] = experiment: Anti-inflammatory activity in C57BL/6 mouse model of LPS-induced ALI assessed as inhibition of IL-6 level in BALF at 20 mg/kg, po measured after 6 hrs with administered on every 12 hrs followed by LPS treatment after 30 mins post-compound treatment by ELISA; type: functional, organism-based; settings: time 6.5 hrs
# [18] = Cmax in Sprague-Dawley rat at 10 mg/kg, po measured for 24 hrs; type: ADME, organism-based; settings: in vivo
# [19] = Acute toxicity in C57BL/6 mouse assessed as change in pathological change in kidney at 100 to 200 mg/kg, po measured for 10 days by H and E staining based analysis; type: organism-based; settings: in vivo, 240 h, dose 100-200 mg/kg, time 10 day
# Mus musculus [20] = experiment: Anti-inflammatory activity in C57BL/6 mouse model of DSS-induced ulcerative colitis assessed as decrease in inflammatory cell infiltration in splenic tissue at 20 to 40 mg/kg, po administered for 8 days […]; type: functional, organism-based; settings: dose 20-40 mg/kg, time 8.0 day
# Homo sapiens = species on record: Homo sapiens; experiment: Inhibition of TAK1 (unknown origin) at 10 uM relative to control
# [21] = Acute toxicity in C57BL/6 mouse assessed as change in daily activities at 100 to 200 mg/kg, po measured for 10 days; type: organism-based; settings: in vivo, 240 h, dose 100-200 mg/kg, time 10 day
# [22] = Acute toxicity in C57BL/6 mouse assessed as change in body weight change at 100 to 200 mg/kg, po measured for 10 days; type: organism-based; settings: in vivo, 240 h, dose 100-200 mg/kg, time 10 day
# Mus musculus [23] = experiment: Anti-inflammatory activity in C57BL/6 mouse model of DSS-induced ulcerative colitis assessed as decrease in macrophage population in red pulp of spleen administered orally for 8 days; type: functional, organism-based; settings: dose 20-40 mg/kg, route po, time 8.0 day
# [24] = Acute toxicity in C57BL/6 mouse assessed as change in physiological state at 100 to 200 mg/kg, po measured for 10 days; type: organism-based; settings: in vivo, 240 h, dose 100-200 mg/kg, time 10 day
# Mus musculus [25] = experiment: Anti-inflammatory activity in C57BL/6 mouse model of DSS-induced ulcerative colitis assessed as decrease in DAI score at 20 to 40 mg/kg, po administered for 8 days; type: functional, organism-based; settings: dose 20-40 mg/kg, time 8.0 day
# Mus musculus [26] = experiment: Anti-inflammatory activity in C57BL/6 mouse model of LPS-induced ALI assessed as decrease in thickening of alveolar septa in lung tissue at 20 mg/kg, po measured after 6 hrs with administered on every 12 hrs followed by LPS treatment after 30 mins post-compound treatment by H and E/IHC staining based analysis; type: functional, organism-based; settings: time 6.5 hrs
# Mus musculus [27] = experiment: Anti-inflammatory activity in C57BL/6 mouse model of DSS-induced ulcerative colitis assessed as colon length at 20 mg/kg, po administered for 8 days (reference value: 5.1 cm); type: functional, organism-based; settings: time 8.0 day
# [28] = Half life in Sprague-Dawley rat at 10 mg/kg, po measured for 24 hrs; type: ADME, organism-based; settings: in vivo
# RAW264.7 [29] = experiment: cells; settings: Mus musculus
# Description: Anti-inflammatory activity in mouse RAW264.7 cells assessed as inhibition of LPS-induced TNF-alpha level preincubated for 30 mins followed by LPS addition measured after 24 hrs by ELISA
# Mus musculus [30] = experiment: Anti-inflammatory activity in C57BL/6 mouse model of LPS-induced ALI assessed as decrease in lung wet to dry ratio at 20 mg/kg, po measured after 6 hrs with administered on every 12 hrs followed by LPS treatment after 30 mins post-compound treatment; type: functional, organism-based; settings: time 6.5 hrs
# Mus musculus [31] = experiment: Anti-inflammatory activity in C57BL/6 mouse model of LPS-induced ALI assessed as decrease in thickening of interstitial edema in lung tissue at 20 mg/kg, po measured after 6 hrs with administered on every 12 hrs followed by LPS treatment after 30 mins post-compound treatment by H and E/IHC staining based analysis; type: functional, organism-based; settings: time 6.5 hrs
smiles,measurement,setting,value
COc1cc2c(O[C@H]3CC[C@@H](N)CC3)ncnc2cc1OCc1cccc(Br)c1,Activity,Mus musculus [1],Active
same,Activity,Mus musculus [2],Active
same,Activity,Mus musculus [3],Active
same,inhibition,RAW264.7 [4],Active
same,Activity,Mus musculus [5],Active; Activity Was Comparable To 5-Asa
same,inhibition,[6],88.2%
same,inhibition,RAW264.7 [7],Dose-dependent-effect
same,inhibition,RAW264.7 [8],Dose-dependent-effect
same,IC50,THP-1,5.03 µM
same,Activity,Mus musculus [9],Dose-dependent-effect
same,inhibition,Mus musculus [10],Active
same,inhibition at 10 µM,RAW264.7 [11],73.6%
same,Activity,Mus musculus [12],Active
same,AUC(0-t) at 24 h,[13],4270 ng·h/mL
same,inhibition,[14],31.4%
same,Activity,Mus musculus [15],Active
same,inhibition,RAW264.7 [16],Active
same,inhibition,Mus musculus [17],Active
same,Cmax,[18],856 ng/mL
same,Activity,[19],Non-toxic
same,Activity,Mus musculus [20],Active
same,inhibition,Homo sapiens,4.42%
same,Activity,[21],Non-toxic
same,Activity,[22],Non-toxic
same,Activity,Mus musculus [23],Dose-dependent-effect
same,Activity,[24],Non-toxic
same,Activity,Mus musculus [25],Active
same,Activity,Mus musculus [26],Active
same,Activity,Mus musculus [27],Active
same,half-life,[28],3 h
same,IC50,RAW264.7 [29],1.52 µM
same,Activity,Mus musculus [30],Active
same,Activity,Mus musculus [31],Active
